Experimental data from publication PMC4512978, “Synthesis and evaluation in rats of homologous series of [^18F]-labeled dopamine D2/3 receptor agonists based on the 2-aminomethylchroman scaffold as potential PET tracers” (EJNMMI Research, 2015).

System: D2/3R
Assay: Kinetic analysis of PET data (1TCM, 2TCM, Logan, SRTM);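 for 2TCM BPND change relative to control: Raclopride 1 mg/kg intravenous pretreatment versus saline controls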;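 for SRTM BPND change relative to control: Raclopride 1 mg/kg intravenous pretreatment versus saline controls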
Assay type: in vivo, Sprague-Dawley rats
Set-up: key to SRTM BPND / 1TCM BPND / 2TCM BPND (VT-based): BPND = VT(target)/VT(cerebellum) − 1 (or SRTM, cerebellum reference); SRTM BPND change relative to control / 1TCM BPND change relative to control / 2TCM BPND change relative to control / Logan BPND change relative to control: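 Raclopride 1 mg/kg intravenous pretreatment versus saline controls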; 1TCM VT / 2TCM VT: unit not given here
Protocol: Kinetic analysis is described using the nomenclature proposed by Innis et al.. ROI TACs of [^18F]FEt-AMC13 were analyzed with one-tissue and two-tissue compartmental models of reversible binding (1TCM and 2TCM, respectively) to obtain individual rate constants. From these, the regional distribution volumes (VT) were calculated and compared to those obtained with Logan graphical analysis. Binding potentials (BPND) were calculated from the distribution ratios as VT (target) / VT (cerebellum) – 1, or estimated with the simplified reference tissue model (SRTM) using the cerebellum as reference region.
Metabolite-corrected plasma-derived arterial input function and whole blood time-activity curve were used for Logan, 1TCM, and 2TCM analyses. Fractional cerebral blood volume was set to 3.6 % [27]. For one rat in the raclopride-treated group, no input curves could be obtained; therefore, its PET data were only analyzed with SRTM.
Degree of D2/3R-specific binding of the tracers was characterized by BPND (as given above) or the specific binding ratio (SBR) given as target region activity/cerebellar activity - 1. Both were calculated under control conditions and in response to the raclopride challenge.

[1] = Pituitary, raclopride, listed as [18F]FEt-AMC13
[2] = Striatum, raclopride, listed as [18F]FEt-AMC13
[3] = Thalamus, raclopride, listed as [18F]FEt-AMC13

1TCM VT (Striatum, control): 7.60±0.64
2TCM VT (Striatum, control): 7.90±0.84
Logan VT (Striatum, control): 7.72±0.84
1TCM VT (Striatum, raclopride): 6.69±0.41
2TCM VT (Striatum, raclopride): 6.97±0.39
Logan VT (Striatum, raclopride): 6.97±0.32
1TCM VT (Thalamus, control): 6.45±0.62
2TCM VT (Thalamus, control): 6.75±0.62
Logan VT (Thalamus, control): 6.64±0.61
1TCM VT (Thalamus, raclopride): 5.93±0.71
2TCM VT (Thalamus, raclopride): 6.44±0.60
Logan VT (Thalamus, raclopride): 6.40±0.40
Compound: Oc1ccc2c(c1)O[C@@H](CNCc1ccc(OCC[18F])cc1)CC2 [[^18F]FEt-AMC13]
SRTM BPND (Pituitary, raclopride): 0.55 ± 0.53
SRTM BPND change relative to control (Pituitary, raclopride): −22%
2TCM BPND change relative to control [1]: -23%
SRTM BPND [1]: 0.55±0.53
SRTM BPND change relative to control [1]: –22%
1TCM BPND (Striatum, control): 0.63 ± 0.08
2TCM BPND (VT-based) (Striatum, control): 0.56 ± 0.05
Logan BPND (Striatum, control): 0.52 ± 0.01
SRTM BPND (Striatum, control): 0.51 ± 0.02
1TCM K1 (Striatum, control rat A): 0.45 ± 0.03 mL/g/min
1TCM k2 (Striatum, control rat A): 0.05 ± 0.01 min⁻¹
2TCM K1 (Striatum, control rat A): 1.77 ± 0.62 mL/g/min
2TCM k2 (Striatum, control rat A): 4.95 ± 3.00 min⁻¹
2TCM k3 (Striatum, control rat A): 1.34 ± 0.29 min⁻¹
2TCM k4 (Striatum, control rat A): 0.05 ± 0.01 min⁻¹
1TCM K1 (Striatum, control rat B): 0.49 ± 0.02 mL/g/min
1TCM k2 (Striatum, control rat B): 0.06 ± 0.01 min⁻¹
2TCM K1 (Striatum, control rat B): 0.63 ± 0.14 mL/g/min
2TCM k2 (Striatum, control rat B): 0.48 ± 0.68 min⁻¹
2TCM k3 (Striatum, control rat B): 0.81 ± 1.13 min⁻¹
2TCM k4 (Striatum, control rat B): 0.17 ± 0.07 min⁻¹
1TCM K1 (Striatum, control rat C): 0.47 ± 0.02 mL/g/min
1TCM k2 (Striatum, control rat C): 0.07 ± 0.004 min⁻¹
2TCM K1 (Striatum, control rat C): 0.98 ± 0.85 mL/g/min
2TCM k2 (Striatum, control rat C): 3.47 ± 8.55 min⁻¹
2TCM k3 (Striatum, control rat C): 2.81 ± 3.01 min⁻¹
2TCM k4 (Striatum, control rat C): 0.11 ± 0.08 min⁻¹
1TCM K1 (Striatum, control rat D): 0.51 ± 0.02 mL/g/min
1TCM k2 (Striatum, control rat D): 0.07 ± 0.01 min⁻¹
2TCM K1 (Striatum, control rat D): 8.06 ± 30.34 mL/g/min
2TCM k2 (Striatum, control rat D): 58.0 ± 203.8 min⁻¹
2TCM k3 (Striatum, control rat D): 3.54 ± 188.40 min⁻¹
2TCM k4 (Striatum, control rat D): 0.07 ± 263.98 min⁻¹
1TCM BPND (Striatum, raclopride): 0.51±0.06
1TCM BPND change relative to control (Striatum, raclopride): -18%
2TCM BPND (VT-based) (Striatum, raclopride): 0.41 ± 0.05
2TCM BPND change relative to control (Striatum, raclopride): −27%
Logan BPND (Striatum, raclopride): 0.40±0.04
Logan BPND change relative to control (Striatum, raclopride): -24%
SRTM BPND (Striatum, raclopride): 0.38 ± 0.05
SRTM BPND change relative to control (Striatum, raclopride): −26%
2TCM BPND (VT-based) [2]: 0.41±0.05
2TCM BPND change relative to control [2]: -27%
SRTM BPND [2]: 0.38±0.05
SRTM BPND change relative to control [2]: –26%
1TCM BPND (Thalamus, control): 0.38±0.06
2TCM BPND (VT-based) (Thalamus, control): 0.33 ± 0.02
Logan BPND (Thalamus, control): 0.31±0.02
SRTM BPND (Thalamus, control): 0.28 ± 0.06
1TCM K1 (Thalamus, control rat A): 0.44 ± 0.02 mL/g/min
1TCM k2 (Thalamus, control rat A): 0.06 ± 0.01 min⁻¹
2TCM K1 (Thalamus, control rat A): 14.0 ± 117.5 mL/g/min
2TCM k2 (Thalamus, control rat A): 104 ± 848 min⁻¹
2TCM k3 (Thalamus, control rat A): 3.05 ± 820.48 min⁻¹
2TCM k4 (Thalamus, control rat A): 0.05 ± 961.03 min⁻¹
1TCM K1 (Thalamus, control rat B): 0.65 ± 0.03 mL/g/min
1TCM k2 (Thalamus, control rat B): 0.10 ± 0.01 min⁻¹
2TCM K1 (Thalamus, control rat B): 0.88 ± 0.12 mL/g/min
2TCM k2 (Thalamus, control rat B): 0.58 ± 0.58 min⁻¹
2TCM k3 (Thalamus, control rat B): 0.67 ± 1.63 min⁻¹
2TCM k4 (Thalamus, control rat B): 0.19 ± 1.99 min⁻¹
1TCM K1 (Thalamus, control rat C): 0.55 ± 0.02 mL/g/min
1TCM k2 (Thalamus, control rat C): 0.09 ± 0.01 min⁻¹
2TCM K1 (Thalamus, control rat C): 0.71 ± 0.13 mL/g/min
2TCM k2 (Thalamus, control rat C): 0.48 ± 0.97 min⁻¹
2TCM k3 (Thalamus, control rat C): 0.76 ± 3.17 min⁻¹
2TCM k4 (Thalamus, control rat C): 0.23 ± 3.61 min⁻¹
1TCM K1 (Thalamus, control rat D): 0.64 ± 0.03 mL/g/min
1TCM k2 (Thalamus, control rat D): 0.11 ± 0.01 min⁻¹
2TCM K1 (Thalamus, control rat D): 3.13 ± 3.18 mL/g/min
2TCM k2 (Thalamus, control rat D): 12.3 ± 18.9 min⁻¹
2TCM k3 (Thalamus, control rat D): 2.61 ± 0.96 min⁻¹
2TCM k4 (Thalamus, control rat D): 0.11 ± 0.02 min⁻¹
1TCM BPND (Thalamus, raclopride): 0.33±0.04
1TCM BPND change relative to control (Thalamus, raclopride): -12%
2TCM BPND (VT-based) (Thalamus, raclopride): 0.30 ± 0.01
2TCM BPND change relative to control (Thalamus, raclopride): −10%
Logan BPND (Thalamus, raclopride): 0.28±0.005
Logan BPND change relative to control (Thalamus, raclopride): -10%
SRTM BPND (Thalamus, raclopride): 0.26 ± 0.02
SRTM BPND change relative to control (Thalamus, raclopride): −7%
2TCM BPND (VT-based) [3]: 0.30±0.01
2TCM BPND change relative to control [3]: -10%
SRTM BPND [3]: 0.26±0.02
SRTM BPND change relative to control [3]: –7%
part of cerebellar VT potentially displaceable (D2/3R specific binding) (modified Lassen plot): 11–26%
part of striatal VT potentially displaceable (D2/3R specific binding) (modified Lassen plot): 41–55%
Striatal BPND relative to cerebellum (range depending on the estimation method): 0.51–0.63
